Results as given in the supplement of paper PMC10307832.

How the values were obtained:
Assay in all cases: relative viability (nuclei count vs DMSO), 5 days (fraction); higher = more cells survive
[1] = system: NCI-H1666; conditions: first compound 0.5 µM
How it was run: (§1)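 Relative viability is defined as nuclei in treated wells over nuclei in vehicle wells. Duplicate plates were run and medians reported. Lung cancer cell lines in 1536-well plates were dosed by pin tool one day after seeding, with one drug or with a fixed anchor-drug dose plus five library-drug doses (not always all listed) in √10 steps, and nuclei were counted after 5 days.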

[2] = system: NCI-H1944
How it was run: as §1

[3] = system: NCI-H2087
How it was run: as §1

[4] = system: NCI-H2342
How it was run: as §1

[5] = system: NCI-H322M
How it was run: as §1

[6] = system: NCI-H358
How it was run: as §1

[7] = system: NCI-H650
How it was run: as §1

[8] = system: NCI-H661
How it was run: as §1

[9] = system: NCI-H838
How it was run: as §1

[10] = system: PC-3 [JPC-3]
How it was run: as §1

[11] = system: SK-MES-1
How it was run: as §1

[12] = system: UMC-11
How it was run: as §1

## CC1(C)CCC(c2ccc(Cl)cc2)=C(CN2CCN(c3ccc(C(=O)NS(=O)(=O)c4ccc(N[C@H](CCN5CCOCC5)CSc5ccccc5)c(S(=O)(=O)C(F)(F)F)c4)cc3)CC2)C1 [Navitoclax] + CC(=O)c1c(C)c2cnc(Nc3ccc(N4CCNCC4)cn3)nc2n(C2CCCC2)c1=O [Palbociclib] (partner 0.5 µM)
[1]
  relative viability: 0.726
[2]; first compound 0.005 µM
  relative viability: 0.345
[2]; first compound 0.01581 µM
  relative viability: 0.364
[2]; first compound 0.1581 µM
  relative viability: 0.3
[2]; first compound 0.5 µM
  relative viability: 0.341
[3]; first compound 0.005 µM
  relative viability: 0.22
[3]; first compound 0.01581 µM
  relative viability: 0.244
[3]; first compound 0.1581 µM
  relative viability: 0.255
[3]; first compound 0.5 µM
  relative viability: 0.257
[4]; first compound 0.005 µM
  relative viability: 0.611
[4]; first compound 0.01581 µM
  relative viability: 0.531
[4]; first compound 0.05 µM
  relative viability: 0.541
[4]; first compound 0.1581 µM
  relative viability: 0.477
[4]; first compound 0.5 µM
  relative viability: 0.629
[5]; first compound 0.005 µM
  relative viability: 0.522
[5]; first compound 0.01581 µM
  relative viability: 0.534
[5]; first compound 0.05 µM
  relative viability: 0.476
[5]; first compound 0.1581 µM
  relative viability: 0.479
[5]; first compound 0.5 µM
  relative viability: 0.499
[6]; first compound 0.005 µM
  relative viability: 0.128
[6]; first compound 0.01581 µM
  relative viability: 0.147
[6]; first compound 0.05 µM
  relative viability: 0.142
[6]; first compound 0.1581 µM
  relative viability: 0.121
[6]; first compound 0.5 µM
  relative viability: 0.134
[7]; first compound 0.005 µM
  relative viability: 0.326
[7]; first compound 0.01581 µM
  relative viability: 0.35
[7]; first compound 0.05 µM
  relative viability: 0.315
[7]; first compound 0.1581 µM
  relative viability: 0.304
[7]; first compound 0.5 µM
  relative viability: 0.336
[8]; first compound 0.005 µM
  relative viability: 0.426
[8]; first compound 0.01581 µM
  relative viability: 0.451
[8]; first compound 0.05 µM
  relative viability: 0.387
[8]; first compound 0.1581 µM
  relative viability: 0.435
[8]; first compound 0.5 µM
  relative viability: 0.384
[9]; first compound 0.005 µM
  relative viability: 0.193
[9]; first compound 0.01581 µM
  relative viability: 0.253
[9]; first compound 0.05 µM
  relative viability: 0.177
[9]; first compound 0.1581 µM
  relative viability: 0.209
[9]; first compound 0.5 µM
  relative viability: 0.224
[10]; first compound 0.005 µM
  relative viability: 0.576
[10]; first compound 0.01581 µM
  relative viability: 0.575
[10]; first compound 0.05 µM
  relative viability: 0.545
[10]; first compound 0.1581 µM
  relative viability: 0.531
[10]; first compound 0.5 µM
  relative viability: 0.506
[11]; first compound 0.005 µM
  relative viability: 0.332
[11]; first compound 0.01581 µM
  relative viability: 0.343
[11]; first compound 0.05 µM
  relative viability: 0.336
[11]; first compound 0.1581 µM
  relative viability: 0.303
[11]; first compound 0.5 µM
  relative viability: 0.385
[12]; first compound 0.005 µM
  relative viability: 0.388
[12]; first compound 0.01581 µM
  relative viability: 0.305
[12]; first compound 0.05 µM
  relative viability: 0.333
[12]; first compound 0.1581 µM
  relative viability: 0.322
[12]; first compound 0.5 µM
  relative viability: 0.319
